Experimental data taken from a melting point compilation (Tetko et al.; mined from patent text by program, amines drawn as free bases though some values may be those of a salt).

Compound | melting point [°C]
CN(C)S(=O)(=O)NC(=O)N1CC(c2ccccc2)C(c2ccc(Cl)cc2)=N1 (configuration not stated) | 210 to 212
FC1(F)CCC(n2ncc3c(Br)cncc32)CC1 | 172 to 173
O=C(O)C1=Cc2cc(Oc3ccc(Cl)cc3)ccc2OC1C(F)(F)F (configuration not stated) | 140 to 142
N#Cc1ccc(OCc2ccsc2)cc1OC(C(=O)O)c1ccccc1F (racemic) | 159 to 161
O=C1COc2cc(Sc3ccc(O)cc3)ccc2N1 | 156 to 157
CN(C)c1ccc(NC(=O)CCC2(c3ccc(Cl)cc3)Nc3cccnc3N2)cc1 (configuration not stated) | 216 to 218
Nc1nc(NC2CC2)c2ncn([C@@H]3C[C@H](CO)[C@@H](O)C3)c2n1 | 174 to 176
CC1=CC(N)(C(=O)NCCC(C)n2ccnc2)CC=C1 (configuration not stated) | 128 to 130
CCCCCCCCCCCCCCCCCCOc1cc(N(CC(=O)O)CC(=O)O)cc([N+](=O)[O-])c1 | 131 to 134
O=C1NCCc2c(NCc3ccccc3)cccc21 | 142 to 144
C1=C(c2nc(-c3ccccc3)no2)CCN(Cc2c[nH]c3ncccc23)C1 | 207 to 209
CC1CNC(CC(c2ccccc2)c2ccccc2)=N1 (configuration not stated) | 55 to 57
CC(=O)n1nc(C)c2ccccc21 | 70 to 71
O=C(CBr)NCCC(=O)ON1C(=O)CCC1=O | 107 to 110
CCC1(CC)COC(c2cccc(NC(=O)NC)c2)OC1 | 112 to 125
CCCCCCCCCCCC(=O)NNC(=O)c1ccccc1O | 158
Oc1ccc2c(c1)CC(CCc1ccccc1)O2 (configuration not stated) | 56 to 58
On1c(C(F)(F)F)nc2c(OCc3ccccc3)cc(Br)cc21 | 211 to 214
O=C(NCCCOc1ccc(-n2ccnc2)cc1)c1ccc(Br)cc1 | 183 to 185
COc1ccc(C(C#Cc2ccccc2)Cc2nnc(C)o2)cc1OC1CCCC1 (racemic) | 105 to 106
NS(=O)(=O)c1cc(Br)cc2c1OS(=O)(=O)C=C2 | 224 to 228
C=C(C)C(=O)OC(COc1ccc(C(=O)c2ccccc2)c(O)c1)COc1ccc(C(=O)c2ccccc2)c(O)c1 | 138 to 139
CC1(C)CCC(C)(C)c2cc(C(=O)C(=O)c3ccc(C(=O)O)cc3)ccc21 | 148 to 151
O=c1[nH]c2cccc(Br)c2c(=O)o1 | 280 to 281
NC(=O)Cn1c(=O)c(=O)[nH]c2ccccc21 | > 300

Compound | melting point [°C]
C=CCn1c(=O)n(CCCCO)c2nc(N)nc(Cl)c21 | 132 to 133
O=[N+]([O-])c1c(O)c(O)cc2c1C(=NO)CC2 | 200 to 201
COc1ccc(C(C)(O)c2sc(C)nc2C)cc1 (configuration not stated) | 114 to 116
C/C(=C\c1ccc(C(=O)O)cc1)c1ccc2c(c1)OCCO2 | 172 to 173
COc1ccc(Sc2nc(C)c(CC(=O)O)s2)nn1 | 143 to 144
CNC(=O)Oc1ccc2onc(NCCN3CCOCC3)c2c1 | 135 to 136
Cc1ccc(C=Nc2cc(F)ccc2C(=O)O)cc1 | 144 to 145
CN(C)C(=O)C(=O)c1c[nH]c2ccc(Br)cc12 | 189 to 190
CCC(Oc1cc(Cl)cc(Cl)c1)C(=O)NC(C)(C)C#CCOC (configuration not stated) | 103 to 104
CNCCOc1ccc(C(=O)NC)cc1 | 95 to 96
CC(C)(CO)c1ccc(C(=O)Nc2cn3cc(-c4cn[nH]c4)ccc3n2)cc1 | 293 to 296
COc1ccc(CCCCCCN)cc1 | 63 to 65
COc1ccccc1NC1c2cc(NC(=O)CC(C)(C)C)c(C)c(C)c2OC1(C)C (configuration not stated) | 184 to 185
Cn1c(=O)n(CC2CO2)n(CC2CO2)c1=O (configuration not stated) | 115 to 116
CCCCCNC(=O)[C@@H]1CCCN1C(=O)[C@@H](N)CC | 140 to 141
CC(=O)N(CCCCN1C(=O)c2ccccc2C1=O)c1ccccc1 | 83 to 84
CCC(O)c1oc(C)cc(=O)c1O (configuration not stated) | 134 to 136
COc1cccc(-c2ccc3ccccc3c2Oc2ccc(C=O)cc2)c1 | 125 to 126
N#Cc1ccc(-c2ccc(-c3ccc(-c4ccc(C#N)cc4)o3)o2)cc1 | 298 to 299
CCOC(=O)c1ccc(CCC(=O)O)cc1 | 108 to 110
Cc1cncn1-c1cc(N)cc(C(F)(F)F)c1 | 131 to 133
COc1cccc(Sc2ccccc2CC(=O)O)c1 | 63 to 65
COc1cccc(C(=O)CC(=O)c2cc(NC(C)=O)ccc2O)c1 | 72 to 73
N#CCCOc1cccc(OCCC#N)c1 | 109 to 110

The remaining lines, values ahead:

melting point [°C] | Compound
122 to 124 | COc1ccc(COc2ccc([N+](=O)[O-])cc2)cc1
246 to 248 | C#Cc1cc2cn[nH]c2c(C(=O)NC2(C3CC3)CC2)c1NC(=O)c1cc(C(F)(F)F)nn1-c1ncccc1Cl
179 to 180 | CC(=O)Oc1ccc(C=CC(=O)NC23CC4CC(CC(C4)C2)C3)cc1[N+](=O)[O-]
168 to 169 | C[C@@H](n1cnc2cc(C#N)ccc2c1=O)[C@](O)(Cn1cncn1)c1ccc(F)cc1F
154 to 160 | COc1ccc(C(=CC(=O)N2CCOCC2)c2ccc(Cl)nc2)cc1OC
239 to 240 | NC1=Nc2cc(Cl)ccc2Nc2cscc21
256 to 257 | Cc1cc(Nc2nccc(-c3sc(N)nc3C)n2)ccc1N1CCOCC1
189 to 190 | COc1ccc2c3c(cn2S(=O)(=O)c2ccc(C)cc2)CC(NC(=O)C(F)(F)F)C(=O)c13 (configuration not stated)
> 260 | COc1ccc2cc3[nH]cc(C#N)c(=O)c3cc2c1
239 to 241 | CCCOc1ccc(S(=O)(=O)N2CCN(CC)CC2)cc1-c1nc2cc(Cl)c([N+](=O)[O-])cc2c(=O)[nH]1
123 to 124 | CCCc1c(OCCCOc2ccc(Sc3ccccc3CC(=O)O)cc2)ccc(C(C)=O)c1O
226 to 228 | CN(Cc1cccc2c1C(=O)N(C1CCC(=O)NC1=O)C2=O)C(=O)Nc1ccccc1 (configuration not stated)
222 to 224 | COc1c(NC(=O)c2ccc(C)c(-n3cc(C(=O)O)nn3)c2)cc(C(C)(C)C)cc1NS(C)(=O)=O
112 to 113 | CCCCNC(=O)Cc1cc(=O)oc2cc(OCc3cccc(Cl)c3)ccc12
151 to 153 | CNc1cccc(C(C)=O)c1OCCCN1CCC(c2noc3cc(F)ccc23)CC1
116 to 117 | CC(=O)NCC1CN(c2ccc(N(C)C=O)c(F)c2)C(=O)O1 (configuration not stated)
120 to 123 | O=S(=O)(Nc1ccc2[nH]ncc2c1)C1CCNCC1
203 to 206 | Nc1c(NCCCOc2cccc(C=O)c2)c(=O)c1=O
> 260 | O=c1oc2cccc(O)c2c2ccc([N+](=O)[O-])cc12
144 to 146 | C[C@@H](n1cnc2cc(Cl)ccc2c1=O)[C@](O)(Cn1cncn1)c1ccc(Cl)cc1Cl
157 to 158 | CC(C)n1nc(-c2c(-c3ccccc3)nn3ccc(C(=O)NCCN(C)C)cc23)ccc1=O
198 to 203 | COc1ccc2ccccc2c1C1C(CC(=O)O)CC(=O)N1c1ccccc1 (configuration not stated)
109 to 110 | COC(=O)c1cc(-c2ccc(F)c(C)c2)nn(Cc2ccccc2)c1=O
> 260 | O=C1CCC2=C1C(c1ccc(Cl)c(F)c1)C1=C(CCS1)N2 (configuration not stated)
117 | Cc1c(-c2ccccc2)oc2c(CNCCO)cccc2c1=O
158 to 159 | CCCS(=O)(=O)NCC1Cc2ccc(C3=NNC(=O)CC3)cc2C1 (configuration not stated)
236 to 237 | O=c1cc(N2CCOCC2)cc(-c2ccc(Cl)cc2)o1

melting point [°C] | Compound
144 to 146 | CCCCc1nc2c(N)nc3ccccc3c2n1CCCCCCl
149 to 151 | CC(C)OCCCNC(=O)CN1C(=O)C2(COc3cc4c(cc32)CCO4)c2ccccc21 (configuration not stated)
40 to 42 | Cc1cccc(OCC(=O)NCCO[N+](=O)[O-])c1
58.5 to 61 | CCOC(OCC)[C@@H]1CCCN1C(=O)[C@@H]1CCCN1C(=O)OCc1ccccc1
69 to 110 | COc1cc(OC2CCN(S(=O)(=O)CCNC3CC3)CC2)ccc1CC(=O)N1CCN(c2ccccc2C)CC1C(N)=O (configuration not stated)
48 to 50 | COc1ccc(OC)c(OCCCCl)c1
133 to 134 | COc1cc(C(=O)N2CCN(C(=O)C3=Cc4ccc(OC)c(OC)c4CCC3)CC2)cc(OC)c1OC
168 to 170 | CCc1nc2c(N)nc3cc(CCCNS(C)(=O)=O)ccc3c2n1CC1CCOCC1
52 to 54 | CCCCCCOc1ccc(CC2SC(=O)NC2=O)cc1 (configuration not stated)
150 to 152 | CCN1c2ncc(/C=C/c3ccncc3)cc2C(=O)N(C)c2ccc(Cl)nc21
152 to 154 | O=c1oc(OCc2ccccc2)nc2ccccc12
205 to 206 | CNC(=O)c1c(C)c([N+](=O)[O-])cc2nc(OC)c(OC)nc12
162 to 163 | CNc1nc(-c2cc3cccc(N(C)S(=O)(=O)c4cccs4)c3[nH]2)cs1
57 to 59 | CCCOc1nc2ccc(Br)cc2c(=O)n1CCC
208 to 212 | NC(=O)N1c2ccccc2C=C([N+](=O)[O-])c2ccccc21
157 to 165 | CCOC(=O)c1cn(C2COC2)c2c(C)c(F)c(F)cc2c1=O
158 to 160 | CCCS(=O)CC(=O)NNC(=O)N1Cc2ccccc2Oc2ccc(Cl)cc21 (configuration not stated)
166 to 169 | Cn1nc(-c2ccc(S(C)(=O)=O)cc2)c(-c2ccc(F)cc2)c1C(F)(F)F
136 to 138 | CCCc1nn(C)c2c(=O)n(CCNc3ccc(OC(C)(C)C(=O)O)cc3)c(CC)nc12
188 | O=C(O)CCCc1cc2nc(Cl)ccc2n1S(=O)(=O)c1cccc(C(F)(F)F)c1
161 to 164 | CC(C)C1Cc2cc(OCC(=O)O)c(Cl)c(Cl)c2C1=O (configuration not stated)
234 to 236 | COc1cc(Nc2c(C#N)cnc3c2sc2ccccc23)c(Cl)cc1Cl
> 200 | CN(C)CCCOc1ccc(C[C@H](NC(=O)[C@@H]2CCCN2S(=O)(=O)c2cn(C)cn2)C(=O)O)cc1
128 to 129 | CCCCc1nc2c(N)nc3cccnc3c2n1CCCCNC(=O)CSc1ccncc1
180 to 182 | Cc1ccc(-c2ccc(C(=O)Nc3ccc4cc(CN5CCCC5)cnc4c3C)c(F)c2)cc1
190 to 193 | COC(=O)c1cccc(C(=O)c2[nH]c3cc(Cl)ccc3c2NC(C)=O)c1
